Experimental data published in patent US12605358B2, “Composition for preventing or treating nervous system diseases comprising compound that inhibits mTOR signaling pathway as active ingredient” (ALIAD BIOPHARMA, priority 2021, dated 2026).

What was measured:
[1] = target: T1, mTORC1 (Homo sapiens, UniProt P42345); assay: mTORC1 inhibition, immunoblot of S6K Thr389 phosphorylation in HeLa cells; type: cell-based; details: at 40 µM, FIG. 2A
T1 construct: endogenous in cells; host or cells: HeLa
Description: HeLa cells were cultured in DMEM (Dulbesco's Modified Eagles Media) containing 10% FBS, penicillin (100 units/ml), and streptomycin (100 μg/ml) at 37° C. in a 5% CO2 incubator. Culture was started by seeding 4×10^5 cells in a 100 mm culture dish, and subcultured every 3 days.
Immunoblot analysis was performed by the following method. SDS-PAGE-developed proteins were electroblotted and transferred and a PVDF membrane was blocked by shaking for 1 hour in a TBS-T buffer (20 mM Tris, 137 mM NaCl, 0.1% Tween 20) containing 5% skim milk. The membrane was repeatedly washed with a TBS-T buffer three times for 5 minutes, and reacted with a first antibody diluted in a TBS-T buffer containing 5% skim milk or 5% BSA overnight at 4° C. Thereafter, the membrane was repeatedly washed with a TBS-T buffer three times for 5 minutes, and reacted with a second antibody diluted in a TBS-T buffer containing 5% skim milk for 30 minutes at room temperature. The membrane was repeatedly washed with a TBS-T buffer containing 5% skim milk five times for 5 minutes, and then protein bands bound to the second antibody were detected by a chemiluminescence method. […]

[2] = test system: primary cultured cerebral neurons; assay: Aβ accumulation (6E10) and LC3 double staining; type: cell-based, rat; details: Aβ 0.5 or 1 μM, HN-1703 0.1 or 0.5 μM, 12 or 24 hours, FIG. 4
Description: Primary neurons culture was performed from the cerebral cortex of E16 embryos on embryonic day 16 of […] (SD, Orient Bio). Primary neurons culture (cortical neurons culture) was performed from the cerebral cortex of rat (SD, Orient Bio) embryonic 16-day (E16) embryos. The left and right hemispheres of the extracted brain were separated using sterile tweezers under a dissecting microscope, the meninges were peeled off, and then the cerebral cortex region was cut with No. 5 tweezers and collected in a Ca^2+/Mg^2+-free HBSS (Invitrogen), and mixed with an equal amount of 0.25% trypsin in a 15 ml tube and treated in a 37° C. water bath for 10 to 15 minutes. Thereafter, trypsin was inactivated by removing a portion of trypsin, leaving 1 to 2 ml of trypsin, and then adding the same amount of 20% FBS-DMEM. […]
As confirmed in Experimental Example 2 that HN-1703 may effectively promote autophagy, it was evaluated whether HN-1703 may remove Aβ oligomers accumulated in cells. In the rat embryonic (E16) cerebral cortex region, primary cultured cerebral neurons were treated with […] or 1 μM Aβ and 0.1 μM or 0.5 μM HN-1703 for 12 or 24 hours, and accumulated Aβ was stained with a 6E10 antibody and autophagy formation was simultaneously double-stained with an LC3 antibody and measured, and cell nuclei were labeled with DAPI. […]

COc1cc(OC)c2c(=O)c3cc4c(cc3oc2c1)OCO4 [HN-1703, 7,9-dimethoxy-10H-[1,3]dioxolo[4,5-b]xanthen-10-one]
inhibition of mTORC1 activity (S6K Thr389 phosphorylation) compared to the control group [1]: 48%
Aβ accumulated in cells removed [2]: ≥ 50%
increase of the area of LC3 puncta ([2]; concentration-dependent): ≥ 4 times
